{
  "source": "the supplement of paper PMC10307832",
  "assay_in_all_cases": "relative viability (nuclei count vs DMSO), 5 days (fraction); higher = more cells survive",
  "key": {"[1]": {"tested_on": "NCI-H1437", "method_in_brief": "(§1)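 Cells from lung cancer lines were seeded into 1536-well plates and, one day later, dosed by pin tool. Treatments were either a single drug or a fixed dose of an anchor drug with five library-drug doses (not always all listed) in √10 steps. After 5 days, nuclei were stained in a one-step fixation (final 0.05% Triton X-100, 1% formaldehyde, 1 ug/ml Hoechst) and counted on 4× images, and relative viability is the treated-to-vehicle nuclei ratio, as the median of duplicate plates.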"}, "[2]": {"tested_on": "NCI-H1792", "method_in_brief": "as §1"}, "[3]": {"tested_on": "NCI-H2170", "method_in_brief": "as §1"}, "[4]": {"tested_on": "NCI-H1734", "method_in_brief": "as §1"}, "[5]": {"tested_on": "BEN", "method_in_brief": "as §1"}, "[6]": {"tested_on": "NCI-H661", "method_in_brief": "as §1"}, "[7]": {"tested_on": "EKVX", "method_in_brief": "as §1"}, "[8]": {"tested_on": "NCI-H1993", "method_in_brief": "as §1"}, "[9]": {"tested_on": "NCI-H2087", "method_in_brief": "as §1"}, "[10]": {"tested_on": "SK-LU-1", "method_in_brief": "as §1"}, "[11]": {"tested_on": "NCI-H1355", "method_in_brief": "as §1"}, "[12]": {"tested_on": "LOU-NH91", "method_in_brief": "as §1"}, "[13]": {"tested_on": "HCC-366", "method_in_brief": "as §1"}, "[14]": {"tested_on": "SK-MES-1", "method_in_brief": "as §1"}, "[15]": {"tested_on": "HCC-827", "method_in_brief": "as §1"}, "[16]": {"tested_on": "NCI-H647", "method_in_brief": "as §1"}, "[17]": {"tested_on": "HARA", "method_in_brief": "as §1"}, "[18]": {"tested_on": "NCI-H2405", "method_in_brief": "as §1"}, "[19]": {"tested_on": "NCI-H2009", "method_in_brief": "as §1"}, "[20]": {"tested_on": "NCI-H1395", "method_in_brief": "as §1"}},
  "data": [
    {"smiles": "Cc1sc2c(c1C)C(c1ccc(Cl)cc1)=N[C@@H](CC(=O)OC(C)(C)C)c1nnc(C)n1-2", "note": "[JQ1] + CS(=O)(=O)CCNCc1ccc(-c2ccc3ncnc(Nc4ccc(OCc5cccc(F)c5)c(Cl)c4)c3c2)o1 [Lapatinib] (partner 2 µM)", "values": [
      {"measurement": "relative viability", "setting": "[1]; first compound 0.04 µM", "value": 0.72},
      {"measurement": "relative viability", "setting": "[1]; first compound 0.1265 µM", "value": 0.463},
      {"measurement": "relative viability", "setting": "[1]; first compound 0.4 µM", "value": 0.403},
      {"measurement": "relative viability", "setting": "[1]; first compound 1.265 µM", "value": 0.194},
      {"measurement": "relative viability", "setting": "[1]; first compound 4 µM", "value": 0.216},
      {"measurement": "relative viability", "setting": "[2]; first compound 0.04 µM", "value": 0.947},
      {"measurement": "relative viability", "setting": "[2]; first compound 0.4 µM", "value": 0.916},
      {"measurement": "relative viability", "setting": "[2]; first compound 1.265 µM", "value": 0.896},
      {"measurement": "relative viability", "setting": "[2]; first compound 4 µM", "value": 0.688},
      {"measurement": "relative viability", "setting": "[3]; first compound 0.04 µM", "value": 0.258},
      {"measurement": "relative viability", "setting": "[3]; first compound 0.1265 µM", "value": 0.252},
      {"measurement": "relative viability", "setting": "[3]; first compound 0.4 µM", "value": 0.262},
      {"measurement": "relative viability", "setting": "[3]; first compound 1.265 µM", "value": 0.229},
      {"measurement": "relative viability", "setting": "[3]; first compound 4 µM", "value": 0.254},
      {"measurement": "relative viability", "setting": "[4]; first compound 0.04 µM", "value": 1.08},
      {"measurement": "relative viability", "setting": "[4]; first compound 0.1265 µM", "value": 0.908},
      {"measurement": "relative viability", "setting": "[4]; first compound 0.4 µM", "value": 1.03},
      {"measurement": "relative viability", "setting": "[4]; first compound 1.265 µM", "value": 0.657},
      {"measurement": "relative viability", "setting": "[4]; first compound 4 µM", "value": 1.04},
      {"measurement": "relative viability", "setting": "[5]; first compound 0.04 µM", "value": 0.676},
      {"measurement": "relative viability", "setting": "[5]; first compound 0.1265 µM", "value": 0.561},
      {"measurement": "relative viability", "setting": "[5]; first compound 0.4 µM", "value": 0.427},
      {"measurement": "relative viability", "setting": "[5]; first compound 1.265 µM", "value": 0.292},
      {"measurement": "relative viability", "setting": "[5]; first compound 4 µM", "value": 0.266},
      {"measurement": "relative viability", "setting": "[6]; first compound 0.04 µM", "value": 0.402},
      {"measurement": "relative viability", "setting": "[6]; first compound 0.1265 µM", "value": 0.527},
      {"measurement": "relative viability", "setting": "[6]; first compound 0.4 µM", "value": 0.339},
      {"measurement": "relative viability", "setting": "[6]; first compound 1.265 µM", "value": 0.27},
      {"measurement": "relative viability", "setting": "[6]; first compound 4 µM", "value": 0.321},
      {"measurement": "relative viability", "setting": "[7]; first compound 0.04 µM", "value": 0.256},
      {"measurement": "relative viability", "setting": "[7]; first compound 0.1265 µM", "value": 0.269},
      {"measurement": "relative viability", "setting": "[7]; first compound 0.4 µM", "value": 0.244},
      {"measurement": "relative viability", "setting": "[7]; first compound 1.265 µM", "value": 0.226},
      {"measurement": "relative viability", "setting": "[7]; first compound 4 µM", "value": 0.141},
      {"measurement": "relative viability", "setting": "[8]; first compound 0.04 µM", "value": 0.825},
      {"measurement": "relative viability", "setting": "[8]; first compound 0.1265 µM", "value": 0.812},
      {"measurement": "relative viability", "setting": "[8]; first compound 0.4 µM", "value": 0.676},
      {"measurement": "relative viability", "setting": "[8]; first compound 1.265 µM", "value": 0.702},
      {"measurement": "relative viability", "setting": "[8]; first compound 4 µM", "value": 0.65},
      {"measurement": "relative viability", "setting": "[9]; first compound 0.04 µM", "value": 1.12},
      {"measurement": "relative viability", "setting": "[9]; first compound 0.4 µM", "value": 0.904},
      {"measurement": "relative viability", "setting": "[9]; first compound 1.265 µM", "value": 0.786},
      {"measurement": "relative viability", "setting": "[9]; first compound 4 µM", "value": 0.506},
      {"measurement": "relative viability", "setting": "[10]; first compound 0.04 µM", "value": 0.891},
      {"measurement": "relative viability", "setting": "[10]; first compound 0.1265 µM", "value": 0.709},
      {"measurement": "relative viability", "setting": "[10]; first compound 0.4 µM", "value": 0.838},
      {"measurement": "relative viability", "setting": "[10]; first compound 1.265 µM", "value": 0.388},
      {"measurement": "relative viability", "setting": "[10]; first compound 4 µM", "value": 0.271},
      {"measurement": "relative viability", "setting": "[11]; first compound 0.04 µM", "value": 0.967},
      {"measurement": "relative viability", "setting": "[11]; first compound 0.1265 µM", "value": 0.973},
      {"measurement": "relative viability", "setting": "[11]; first compound 0.4 µM", "value": 0.956},
      {"measurement": "relative viability", "setting": "[11]; first compound 1.265 µM", "value": 0.765},
      {"measurement": "relative viability", "setting": "[11]; first compound 4 µM", "value": 0.596},
      {"measurement": "relative viability", "setting": "[12]; first compound 0.04 µM", "value": 0.787},
      {"measurement": "relative viability", "setting": "[12]; first compound 0.1265 µM", "value": 0.679},
      {"measurement": "relative viability", "setting": "[12]; first compound 0.4 µM", "value": 0.624},
      {"measurement": "relative viability", "setting": "[12]; first compound 1.265 µM", "value": 0.501},
      {"measurement": "relative viability", "setting": "[12]; first compound 4 µM", "value": 0.392},
      {"measurement": "relative viability", "setting": "[13]; first compound 0.04 µM", "value": 1.02},
      {"measurement": "relative viability", "setting": "[13]; first compound 0.4 µM", "value": 0.877},
      {"measurement": "relative viability", "setting": "[13]; first compound 1.265 µM", "value": 0.461},
      {"measurement": "relative viability", "setting": "[13]; first compound 4 µM", "value": 0.472},
      {"measurement": "relative viability", "setting": "[14]; first compound 0.04 µM", "value": 0.455},
      {"measurement": "relative viability", "setting": "[14]; first compound 0.1265 µM", "value": 0.436},
      {"measurement": "relative viability", "setting": "[14]; first compound 0.4 µM", "value": 0.361},
      {"measurement": "relative viability", "setting": "[14]; first compound 1.265 µM", "value": 0.292},
      {"measurement": "relative viability", "setting": "[14]; first compound 4 µM", "value": 0.274},
      {"measurement": "relative viability", "setting": "[15]; first compound 0.04 µM", "value": 0.206},
      {"measurement": "relative viability", "setting": "[15]; first compound 0.4 µM", "value": 0.21},
      {"measurement": "relative viability", "setting": "[15]; first compound 1.265 µM", "value": 0.189},
      {"measurement": "relative viability", "setting": "[15]; first compound 4 µM", "value": 0.202},
      {"measurement": "relative viability", "setting": "[16]; first compound 0.04 µM", "value": 0.997},
      {"measurement": "relative viability", "setting": "[16]; first compound 0.1265 µM", "value": 0.509},
      {"measurement": "relative viability", "setting": "[16]; first compound 0.4 µM", "value": 0.439},
      {"measurement": "relative viability", "setting": "[16]; first compound 1.265 µM", "value": 0.104},
      {"measurement": "relative viability", "setting": "[16]; first compound 4 µM", "value": 0.0821},
      {"measurement": "relative viability", "setting": "[17]; first compound 0.04 µM", "value": 0.871},
      {"measurement": "relative viability", "setting": "[17]; first compound 0.1265 µM", "value": 0.559},
      {"measurement": "relative viability", "setting": "[17]; first compound 0.4 µM", "value": 0.642},
      {"measurement": "relative viability", "setting": "[17]; first compound 1.265 µM", "value": 0.317},
      {"measurement": "relative viability", "setting": "[17]; first compound 4 µM", "value": 0.165},
      {"measurement": "relative viability", "setting": "[18]; first compound 0.04 µM", "value": 1.19},
      {"measurement": "relative viability", "setting": "[18]; first compound 0.4 µM", "value": 1.12},
      {"measurement": "relative viability", "setting": "[18]; first compound 1.265 µM", "value": 0.587},
      {"measurement": "relative viability", "setting": "[18]; first compound 4 µM", "value": 0.485},
      {"measurement": "relative viability", "setting": "[19]; first compound 0.04 µM", "value": 0.961},
      {"measurement": "relative viability", "setting": "[19]; first compound 0.1265 µM", "value": 0.412},
      {"measurement": "relative viability", "setting": "[19]; first compound 0.4 µM", "value": 0.336},
      {"measurement": "relative viability", "setting": "[19]; first compound 1.265 µM", "value": 0.285},
      {"measurement": "relative viability", "setting": "[19]; first compound 4 µM", "value": 0.251},
      {"measurement": "relative viability", "setting": "[20]; first compound 0.04 µM", "value": 0.931},
      {"measurement": "relative viability", "setting": "[20]; first compound 0.1265 µM", "value": 0.733},
      {"measurement": "relative viability", "setting": "[20]; first compound 0.4 µM", "value": 0.935},
      {"measurement": "relative viability", "setting": "[20]; first compound 1.265 µM", "value": 0.492},
      {"measurement": "relative viability", "setting": "[20]; first compound 4 µM", "value": 0.487}
    ]}
  ]
}
